In US6645911B2, “Synergistic herbicidal mixtures” (BASF Aktiengesellschaft, priority 2000, dated 2003):

Key:
Assay type in all cases: in vivo
Stellaria media [1] = experiment: Postemergence herbicidal greenhouse evaluation, Test Serie A (Table II, picolinafen/carfentrazone-ethyl); conditions: 21 days after treatment
Protocol: (§1) In the following examples, synergism for two-way combinations is determined by the Colby^1 method, i.e. the expected (or predicted) response of the combination is calculated by taking the product of the observed response for each individual component of the combination when applied alone divided by 100 and subtracting this value from the sum of the observed response for each component when applied alone. Synergism of the combination is then determined by comparing the observed response of the combination to the expected (or predicted) response as calculated from the observed responses of each individual component alone. If the observed response of the combination is greater than the expected (or predicted) response then the combination is said to be synergistic and falls within the definition of synergistic effect as previously defined.
(§2) Postemergence Herbicidal Greenhouse Evaluations
(§3) Plant seeds are sown in pots containing a loamy sand soil (0.5 l). The herbicides are applied as single treatments, or in a combination comprising a compound of formula I and a second compound as defined above, after emergence of weeds and crop. The herbicidal performance is assessed as percent damage in comparison to the untreated control plants. The assessment is done 21 days after the treatment. Wheat and barley are treated at the 3-4 leaf stage, the broad-leaf weeds at the 2-4 leaf stage and annual grasses at the 2-3 leaf stage. [formula]
(§4) For the compound of formula I picolinafen is employed.
(§5) The damage caused by the chemicals was assessed with reference to a scale from 0 to 100% in comparison with the untreated control plants. 0 means no damage and 100 means compete destruction of the plants.

Stellaria media [2] = experiment: Postemergence herbicidal evaluation, Test Serie B, in spring barley (Table IV); conditions: weed growth stage 22, test period 14 days
Protocol: as §1, §5
For the post-emergence treatment, the test plants were first grown to a height of 3 to 20 cm, depending on the growth habit, and only then treated. […]
(§6) The test period extended over 14 days. During this time, the plants were attended, and their responses to the treatments with active ingredients were recorded (Tables III and IV).

Anthimis mixta = experiment: Postemergence herbicidal evaluation, Test Serie B, in spring wheat (Table III); conditions: weed growth stage 14, test period 14 days
Protocol: as §1, §5
(§7) For the post-emergence treatment, the test plants were first grown to a height of 3 to 20 cm, depending on the growth habit, and only then treated. The herbicides were suspended or emulsified in water as the vehicle and sprayed with the aid of finely distributing nozzles.
(§8) Cinidon-ethyl was formulated as a 20% by weight emulsion concentrate and employed in the spray mixture with addition of that amount of solvent system with which the active ingredient had been applied at the application rates shown in the tables.
(§9) Picolinofen was formulated as a 10% by weight emulsion concentrate and empolyed in the spray mixture with addition of that amount of solvent system with which the active ingredient had been applied at the rates shown in the tables.
as §6

Veronica persicaria = experiment: as above; conditions: weed growth stage 14, test period 14 days
Protocol: as §1, §5, §7, §8, §9, §6

Alopecuris myosuroides = experiment: Postemergence herbicidal greenhouse evaluation, Test Serie A (Table I); conditions: 21 days after treatment
Protocol: as §1, §2, §3, §4, §5

Galium aparine = experiment: as above; conditions: 21 days after treatment
Protocol: as §1, §2, §3, §4, §5

Papaver rhoeas = experiment: as above; conditions: 21 days after treatment
Protocol: as §1, §2, §3, §4, §5

Stellaria media [3] = experiment: as above; conditions: 21 days after treatment
Protocol: as §1, §2, §3, §4, §5

Lamium purpurium = experiment: as above; conditions: 21 days after treatment
Protocol: as §1, §2, §3, §4, §5

[4] = Picolinafen 0 g/ha, Flufenacet 15 g/ha
[5] = Picolinafen 0 g/ha, Flufenacet 30 g/ha
[6] = Picolinafen 0 g/ha, Flufenacet 120 g/ha
[7] = Picolinafen 30 g/ha, Flufenacet 0 g/ha
[8] = Picolinafen 60 g/ha, Flufenacet 0 g/ha
[9] = Picolinafen 15 g/ha, Flufenacet 0 g/ha

## CCOC(=O)C(Cl)Cc1cc(-n2nc(C)n(C(F)F)c2=O)c(F)cc1Cl (racemic) [Carfentrazone-ethyl, ethyl (RS)-2-chloro-3-[2-chloro-5-(4-difluoromethyl-4,5-dihydro-3-methyl-5-oxo-1H-1,2,4-triazol-1-yl)-4-fluorophenyl]propionate]
Stellaria media [1]; Picolinafen 0 g/ha, Carfentrazone-ethyl 3.75 g/ha
  % Control OBS: 0%
Stellaria media [1]; Picolinafen 0 g/ha, Carfentrazone-ethyl 7.50 g/ha
  % Control OBS: 0%
Stellaria media [1]; Picolinafen 0 g/ha, Carfentrazone-ethyl 15 g/ha
  % Control OBS: 0%
Stellaria media [1]; Picolinafen 0 g/ha, Carfentrazone-ethyl 30 g/ha
  % Control OBS: 0%

## CCOC(=O)/C(Cl)=C/c1cc(N2C(=O)C3=C(CCCC3)C2=O)ccc1Cl [Cinidon-ethyl, ethyl (Z)-2-chloro-3-[2-chloro-5-(1,3-dioxo-4,5,6,7-tetrahydroisoindol-2-yl)-phenyl]acrylate]
Stellaria media [2]; Cinidon-ethyl 50 g/ha alone
  % Control OBS: 23%
Anthimis mixta; Cinidon-ethyl 50 g/ha alone
  % Control OBS: 52%
Veronica persicaria; Cinidon-ethyl 50 g/ha alone
  % Control OBS: 50%

## CC(C)N(C(=O)COc1nnc(C(F)(F)F)s1)c1ccc(F)cc1 [Flufenacet]
Alopecuris myosuroides; [4]
  % Control OBS: 75%
Galium aparine; [4]
  % Control OBS: 40%
Galium aparine; [5]
  % Control OBS: 55%
Papaver rhoeas; [4]
  % Control OBS: 0%
Papaver rhoeas; [5]
  % Control OBS: 0%
Papaver rhoeas; [6]
  % Control OBS: 18%
Stellaria media [3]; [5]
  % Control OBS: 0%
Stellaria media [3]; Picolinafen 0 g/ha, Flufenacet 60 g/ha
  % Control OBS: 0%
Stellaria media [3]; [6]
  % Control OBS: 0%
Lamium purpurium; [6]
  % Control OBS: 18%

## O=C(Nc1ccc(F)cc1)c1cccc(Oc2cccc(C(F)(F)F)c2)n1 [Picolinafen, N-(4-fluorophenyl)-6-(-3-trifluoromethylphenoxy)-pyrid-2-ylcarboxamide]
Stellaria media [2]; Picolinafen 50 g/ha alone
  % Control OBS: 10%
Stellaria media [1]; Picolinafen 30 g/ha, Carfentrazone-ethyl 0 g/ha
  % Control OBS: 37%
Stellaria media [1]; Picolinafen 60 g/ha, Carfentrazone-ethyl 0 g/ha
  % Control OBS: 45%
Stellaria media [1]; Picolinafen 120 g/ha, Carfentrazone-ethyl 0 g/ha
  % Control OBS: 72%
Alopecuris myosuroides; [7]
  % Control OBS: 20%
Alopecuris myosuroides; [8]
  % Control OBS: 43%
Alopecuris myosuroides; Picolinafen 120 g/ha, Flufenacet 0 g/ha
  % Control OBS: 60%
Galium aparine; [9]
  % Control OBS: 78%
Papaver rhoeas; [7]
  % Control OBS: 15%
Papaver rhoeas; [8]
  % Control OBS: 35%
Stellaria media [3]; [9]
  % Control OBS: 53%
Stellaria media [3]; [7]
  % Control OBS: 73%
Lamium purpurium; [7]
  % Control OBS: 15%
Anthimis mixta; Picolinafen 50 g/ha alone
  % Control OBS: 10%
Veronica persicaria; Picolinafen 50 g/ha alone
  % Control OBS: 10%
